Biological target: T1, SHP2 protein (Homo sapiens, UniProt Q06124)
T1 sequence (Q06124 1-593): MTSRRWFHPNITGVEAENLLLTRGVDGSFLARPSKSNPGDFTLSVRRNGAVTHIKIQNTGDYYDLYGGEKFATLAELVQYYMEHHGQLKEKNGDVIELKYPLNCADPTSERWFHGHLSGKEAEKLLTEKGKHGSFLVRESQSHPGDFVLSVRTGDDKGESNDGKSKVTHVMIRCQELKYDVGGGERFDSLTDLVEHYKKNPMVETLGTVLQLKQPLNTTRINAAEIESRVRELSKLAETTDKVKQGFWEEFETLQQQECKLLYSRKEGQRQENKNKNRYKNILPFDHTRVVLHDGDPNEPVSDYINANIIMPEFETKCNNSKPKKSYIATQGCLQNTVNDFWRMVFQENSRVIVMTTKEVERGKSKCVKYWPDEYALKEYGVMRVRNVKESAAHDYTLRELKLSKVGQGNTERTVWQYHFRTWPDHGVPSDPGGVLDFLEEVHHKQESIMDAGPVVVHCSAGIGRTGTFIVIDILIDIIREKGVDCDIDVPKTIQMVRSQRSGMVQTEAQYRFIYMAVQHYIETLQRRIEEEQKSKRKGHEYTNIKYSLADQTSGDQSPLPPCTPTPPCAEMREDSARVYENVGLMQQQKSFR
Test: Measurement of SHP2 protein degradation in MV-4-11 cells (western blotting)
Assay type: cell-based
Parameters: endogenous in cells; host or cells: MV-4-11
Conditions: for SHP2 degradation (%) 10 nM / SHP2 degradation (%) 100 nM / SHP2 degradation (%) 1000 nM: MV-4-11 cells, 24 hours
In short: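 SHP2 protein levels were assessed by western blotting in MV-4-11 cells after a 24 hour compound treatment. Lysates were sonicated, centrifuged, normalized by BCA assay at 562 nm, run on Bis-tris 4-12% gels, transferred to NC membrane, probed with anti-SHPTP2 (70 kDa) and anti-GAPDH (37 kDa) antibodies, and detected on LI-COR Odyssey.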

SHP2 degradation (%) 10 nM	SHP2 degradation (%) 100 nM	SHP2 degradation (%) 1000 nM	SHP2 protein degradation activity (in words) (comment on Table 4)	SMILES
95.7%	99.8%	99.7%		CC(=O)N[C@H](C(=O)N1C[C@H](O)C[C@H]1C(=O)NCc1ccc(-c2scnc2C)cc1OCCN1CCN(C(=O)CC(=O)Nc2cccc(Sc3cnc(N4CCC(C)(CN)CC4)cn3)c2Cl)CC1)C(C)(C)C [Example 57, (2S,4R)-1-((S)-2-acetamido-3,3-dimethylbutanoyl)-N-(2-(2-(4-(3-((3-((5-(4-(aminomethyl)-4-methylpiperidin-1-yl)pyrazin-2-yl)thio)-2-chlorophenyl)amino)-3-oxopropanoyl)piperazin-1-yl)ethoxy)-4-(4-methylthiazol-5-yl)benzyl)-4-hydroxypyrrolidine-2-carboxamide]
90.0%	99.9%			Cc1ncsc1-c1ccc(CNC(=O)[C@@H]2C[C@@H](O)CN2C(=O)[C@@H](NC(=O)C2(F)CC2)C(C)(C)C)c(OCCN2CCN(C(=O)C(C)C(=O)Nc3cccc(Sc4cnc(N5CCC(C)(CN)CC5)cn4)c3Cl)CC2)c1 (stereo partly drawn) [Example 58, (2S,4R)—N-(2-(2-(4-(3-((3-((5-(4-(aminomethyl)-4-methylpiperidin-1-yl)pyrazin-2-yl)thio)-2-chlorophenyl)amino)-2-methyl-3-oxopropanoyl)piperazin-1-yl)ethoxy)-4-(4-methylthiazol-5-yl)benzyl)-1-((S)-2-(1-fluorocyclopropane-1-carboxamido)-3,3-dimethylbutanoyl)-4-hydroxypyrrolidine-2-carboxamide]
−2.0%	3.0%		somewhat decreased	Cc1ncsc1-c1ccc(CNC(=O)[C@@H]2C[C@@H](O)CN2C(=O)[C@@H](NC(=O)C2(F)CC2)C(C)(C)C)c(OCCN2CCN(C(=O)C(C)(C)C(=O)Nc3cccc(Sc4cnc(N5CCC(C)(CN)CC5)cn4)c3Cl)CC2)c1 [Example 59, (2S,4R)—N-(2-(2-(4-(3-((3-((5-(4-(aminomethyl)-4-methylpiperidin-1-yl)pyrazin-2-yl)thio)-2-chlorophenyl)amino)-2,2-dimethyl-3-oxopropanoyl)piperazin-1-yl)ethoxy)-4-(4-methylthiazol-5-yl)benzyl)-1-((S)-2-(1-fluorocyclopropane-1-carboxamido)-3,3-dimethylbutanoyl)-4-hydroxypyrrolidine-2-carboxamide]
59%	94%	95.5%		Cc1ncsc1-c1ccc(CNC(=O)[C@@H]2C[C@@H](O)CN2C(=O)[C@@H](NC(=O)C2(F)CC2)C(C)(C)C)c(OCCCN2CCN(C(=O)CC(=O)Nc3cccc(Sc4cnc(N5CCC(C)(CN)CC5)cn4)c3Cl)CC2)c1 [Example 60, (2S,4R)—N-(2-(3-(4-(3-((3-((5-(4-(aminomethyl)-4-methylpiperidin-1-yl)pyrazin-2-yl)thio)-2-chlorophenyl)amino)-3-oxopropanoyl)piperazin-1-yl)propoxy)-4-(4-methylthiazol-5-yl)benzyl)-1-((S)-2-(1-fluorocyclopropane-1-carboxamido)-3,3-dimethylbutanoyl)-4-hydroxypyrrolidine-2-carboxamide]
87.3%	99.4%			CC(=O)N[C@H](C(=O)N1C[C@H](O)C[C@H]1C(=O)NCc1ccc(-c2scnc2C)cc1OCCCN1CCN(C(=O)CC(=O)Nc2cccc(Sc3cnc(N4CCC(C)(CN)CC4)cn3)c2Cl)CC1)C(C)(C)C [Example 61, (2S,4R)-1-((S)-2-acetamido-3,3-dimethylbutanoyl)-N-(2-(3-(4-(3-((3-((5-(4-(aminomethyl)-4-methylpiperidin-1-yl)pyrazin-2-yl)thio)-2-chlorophenyl)amino)-3-oxopropanoyl)piperazin-1-yl)propoxy)-4-(4-methylthiazol-5-yl)benzyl)-4-hydroxypyrrolidine-2-carboxamide]
82.5%	96%			Cc1ncsc1-c1ccc(CNC(=O)[C@@H]2C[C@@H](O)CN2C(=O)[C@@H](NC(=O)C2(F)CC2)C(C)(C)C)c(OCCN2CCN(C(=O)CC(=O)Nc3cccc(Sc4cnc(N5CCC(C)(CN)CC5)cn4)c3Cl)[C@H](C)C2)c1 [Example 62, (2S,4R)—N-(2-(2-((R)-4-(3-((3-((5-(4-(aminomethyl)-4-methylpiperidin-1-yl)pyrazin-2-yl)thio)-2-chlorophenyl)amino)-3-oxopropanoyl)-3-methylpiperazin-1-yl)ethoxy)-4-(4-methylthiazol-5-yl)benzyl)-1-((S)-2-(1-fluorocyclopropane-1-carboxamido)-3,3-dimethylbutanoyl)-4-hydroxypyrrolidine-2-carboxamide]
90.5%	97%			Cc1ncsc1-c1ccc(CNC(=O)[C@@H]2C[C@@H](O)CN2C(=O)[C@@H](NC(=O)C2(F)CC2)C(C)(C)C)c(OCCN2CCN(C(=O)CC(=O)Nc3cccc(Sc4cnc(N5CCC(C)(CN)CC5)cn4)c3Cl)[C@@H](C)C2)c1 [Example 63, (2S,4R)—N-(2-(2-((S)-4-(3-((3-((5-(4-(aminomethyl)-4-methylpiperidin-1-yl)pyrazin-2-yl)thio)-2-chlorophenyl)amino)-3-oxopropanoyl)-3-methylpiperazin-1-yl)ethoxy)-4-(4-methylthiazol-5-yl)benzyl)-1-((S)-2-(1-fluorocyclopropane-1-carboxamido)-3,3-dimethylbutanoyl)-4-hydroxypyrrolidine-2-carboxamide]
45.9%	96.6%			Cc1ncsc1-c1ccc(CNC(=O)[C@@H]2C[C@@H](O)CN2C(=O)[C@@H](NC(=O)C2(F)CC2)C(C)(C)C)c(OCCCN2CCN(C(=O)CC(=O)Nc3cccc(Sc4cnc(N5CCC(C)(CN)CC5)cn4)c3Cl)[C@@H](C)C2)c1 [Example 64, (2S,4R)—N-(2-(3-((S)-4-(3-((3-((5-(4-(aminomethyl)-4-methylpiperidin-1-yl)pyrazin-2-yl)thio)-2-chlorophenyl)amino)-3-oxopropanoyl)-3-methylpiperazin-1-yl)propoxy)-4-(4-methylthiazol-5-yl)benzyl)-1-((S)-2-(1-fluorocyclopropane-1-carboxamido)-3,3-dimethylbutanoyl)-4-hydroxypyrrolidine-2-carboxamide]
31.6%	95.4%			Cc1ncsc1-c1ccc(CNC(=O)[C@@H]2C[C@@H](O)CN2C(=O)[C@@H](NC(=O)C2(F)CC2)C(C)(C)C)c(OCCCN2CCN(C(=O)CC(=O)Nc3cccc(Sc4cnc(N5CCC(C)(CN)CC5)cn4)c3Cl)[C@H](C)C2)c1 [Example 65]
79%	98.1%			COC(=O)[C@@H]1CN(C(=O)CC(=O)Nc2cccc(Sc3cnc(N4CCC(C)(CN)CC4)cn3)c2Cl)CCN1CCOc1cc(-c2scnc2C)ccc1CNC(=O)[C@@H]1C[C@@H](O)CN1C(=O)[C@@H](NC(=O)C1(F)CC1)C(C)(C)C [Example 66, (S)-methyl 4-(3-((3-((5-(4-(aminomethyl)-4-methylpiperidin-1-yl)pyrazin-2-yl)thio)-2-chlorophenyl)amino)-3-oxopropanoyl)-1-(2-(2-(((2S,4R)-1-((S)-2-(1-fluorocyclopropane-1-carboxamido)-3,3-dimethylbutanoyl)-4-hydroxypyrrolidine-2-carboxamido)methyl)-5-(4-methylthiazol-5-yl)phenoxy)ethyl)piperazine-2-carboxylate]
68.3%	98.1%			COC(=O)[C@H]1CN(C(=O)CC(=O)Nc2cccc(Sc3cnc(N4CCC(C)(CN)CC4)cn3)c2Cl)CCN1CCOc1cc(-c2scnc2C)ccc1CNC(=O)[C@@H]1C[C@@H](O)CN1C(=O)[C@@H](NC(=O)C1(F)CC1)C(C)(C)C [Example 67, Methyl (R)-4-(3-((3-((5-(4-(aminomethyl)-4-methylpiperidin-1-yl)pyrazin-2-yl)thio)-2-chlorophenyl)amino)-3-oxopropanoyl)-1-(2-(2-(((2S,4R)-1-((S)-2-(1-fluorocyclopropane-1-carboxamido)-3,3-dimethylbutanoyl)-4-hydroxypyrrolidine-2-carboxamido)methyl)-5-(4-methylthiazol-5-yl)phenoxy)ethyl)piperazine-2-carboxylate]

SMILES	SHP2 degradation (%) 10 nM	SHP2 degradation (%) 100 nM	SHP2 degradation (%) 1000 nM	SHP2 protein degradation activity (in words) (comment on Table 4)
Cc1ncsc1-c1ccc(CNC(=O)[C@@H]2C[C@@H](O)CN2C(=O)[C@@H](NC(=O)C2(F)CC2)C(C)(C)C)c(OCCN2CC3CCC(C2)N3C(=O)CC(=O)Nc2cccc(Sc3cnc(N4CCC(C)(CN)CC4)cn3)c2Cl)c1 [Example 68, (2S,4R)—N-(2-(2-(8-(3-((3-((5-(4-(aminomethyl)-4-methylpiperidin-1-yl)pyrazin-2-yl)thio)-2-chlorophenyl)amino)-3-oxopropanoyl)-3,8-diazabicyclo[3.2.1]octan-3-yl)ethoxy)-4-(4-methylthiazol-5-yl)benzyl)-1-((S)-2-(1-fluorocyclopropane-1-carboxamido)-3,3-dimethylbutanoyl)-4-hydroxypyrrolidine-2-carboxamide]	83.3%	98.3%		

From US20250230154A1, “COMPOUND HAVING SHP2 PROTEIN DEGRADING ACTIVITY, AND MEDICAL USES THEREOF” (UBIX THERAPEUTICS, INC., priority 2021, published 2025)
